The values below are quoted from earlier work in publication PMC4411882, “Developmental Potential for Endomorphin Opioidmimetic Drugs” (International Journal of Medicinal Chemistry, 2012).

The target of series [1] is T1, μ-opioid receptor (Rattus norvegicus, UniProt P33535). Set-up: gene Oprm1. The conditions noted are these: read-out: Kiμ.
In series [2] the target is T2, δ-opioid receptor (Rattus norvegicus, UniProt P33533). Set-up: gene Oprd1. The conditions noted are these: read-out: Kiδ.
The target in another series is T3, μ-opioid receptor (GPI) (Cavia porcellus, UniProt P97266).
T3 construct: gene OPRM1; guinea pig ileum (GPI) bioassay
T3 sequence (P97266 whole entry): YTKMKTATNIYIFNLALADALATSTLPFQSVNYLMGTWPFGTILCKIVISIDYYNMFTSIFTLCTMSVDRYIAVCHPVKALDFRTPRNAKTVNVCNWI
Set-up: species or system guinea pig ileum. The source says:
(§1) Therefore, we substituted hydrophobic groups in lieu of the phenethyl group to develop the class of H-Dmt-Pro-Phe-NH-X ligands (Figure 1).

The target of another series is T4, δ-opioid receptor (MVD) (Mus musculus, UniProt P32300).
T4 construct: gene Oprd1; mouse vas deferens (MVD) bioassay
T4 sequence (P32300 whole entry): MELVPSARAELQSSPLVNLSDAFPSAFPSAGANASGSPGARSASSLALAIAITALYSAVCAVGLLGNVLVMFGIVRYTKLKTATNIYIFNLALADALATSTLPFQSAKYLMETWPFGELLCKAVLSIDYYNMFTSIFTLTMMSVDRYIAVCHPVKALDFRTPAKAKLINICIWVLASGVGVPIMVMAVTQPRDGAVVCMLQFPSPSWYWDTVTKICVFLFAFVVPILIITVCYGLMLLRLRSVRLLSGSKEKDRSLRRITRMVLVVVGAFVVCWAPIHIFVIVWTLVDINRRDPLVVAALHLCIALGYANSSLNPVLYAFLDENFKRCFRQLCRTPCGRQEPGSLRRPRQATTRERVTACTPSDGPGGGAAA
Also noted: species or system mouse vas deferens.
Excerpt: as §1

Series [3] concerns the target T1, μ-opioid receptor. Set-up: gene Oprm1; rat brain P2 synaptosomal preparations; species or system rat brain P2 synaptosomal preparations. Conditions: read-out: Kiμ.
Series [4] addresses T2, δ-opioid receptor. Set-up: gene Oprd1; rat brain P2 synaptosomal preparations; species or system rat brain P2 synaptosomal preparations. The conditions noted are these: read-out: Kiδ.

Read-outs that look alike come from different tables or passages of the source. Where a SMILES comes first, the peptide text is derived from it. [ ]: non-standard residue; d: D form. The star is where a group is joined. Dmt = Cc1cc(O)cc(C)c1C[C@H](N)C(=O)O; NHBn = c1ccc(CN*)cc1; NHPh = c1ccc(N*)cc1

T1 sequence (P33535 whole entry): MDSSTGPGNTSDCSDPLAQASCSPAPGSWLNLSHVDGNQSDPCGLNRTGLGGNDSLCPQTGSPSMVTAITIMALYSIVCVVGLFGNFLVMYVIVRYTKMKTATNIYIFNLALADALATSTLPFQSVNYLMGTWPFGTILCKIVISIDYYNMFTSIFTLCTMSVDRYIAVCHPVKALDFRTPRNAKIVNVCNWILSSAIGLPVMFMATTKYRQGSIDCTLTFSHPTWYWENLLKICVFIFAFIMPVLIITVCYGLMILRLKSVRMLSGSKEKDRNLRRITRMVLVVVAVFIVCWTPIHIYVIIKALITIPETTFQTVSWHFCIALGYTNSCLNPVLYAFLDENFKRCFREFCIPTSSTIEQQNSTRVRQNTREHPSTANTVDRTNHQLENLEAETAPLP
T2 sequence (P33533 whole entry): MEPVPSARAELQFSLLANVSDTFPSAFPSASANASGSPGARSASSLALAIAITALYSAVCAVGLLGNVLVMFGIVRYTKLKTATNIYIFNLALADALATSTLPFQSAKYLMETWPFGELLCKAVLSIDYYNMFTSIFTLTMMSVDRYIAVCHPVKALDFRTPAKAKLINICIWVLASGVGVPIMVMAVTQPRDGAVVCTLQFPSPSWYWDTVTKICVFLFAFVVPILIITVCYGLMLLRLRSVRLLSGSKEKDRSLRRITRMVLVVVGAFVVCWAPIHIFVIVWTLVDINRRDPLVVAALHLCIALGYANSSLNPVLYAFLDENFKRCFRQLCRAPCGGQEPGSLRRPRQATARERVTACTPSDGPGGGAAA

As to `CNC(=O)C(N)Cc1c(C)cc(O)cc1C` (stereo not shown) [H-Dmt-NH-CH3], the Ki at μ-opioid receptor [1] was 7.45 nM; on δ-opioid receptor [2], 460 nM.
For orientation: IC50 means the point on the concentration scale where inhibition reaches its midpoint. On to `Cc1cc(O)cc(C)c1C[C@H](N)C(=O)NCCCCCCCCNC(=O)[C@@H](N)Cc1c(C)cc(O)cc1C` [compound 54, Dmt-NH-(CH2)8-NH-Dmt], for which the IC50 on μ-opioid receptor (GPI) is 53.7 nM; on δ-opioid receptor (MVD), > 10000 nM. Besides, the Ki on μ-opioid receptor [3] was 0.19 nM; at δ-opioid receptor [4] it was 14.8 nM.
As for `C=CCNC(Cc1c(C)cc(O)cc1C)C(=O)NCCCc1[nH]c(=O)c(CCCNC(=O)C(Cc2c(C)cc(O)cc2C)NCC=C)nc1C` (stereo not shown) [compound 50, 3,6-bis[N-allyl-Dmt-NH-propyl]-5-methyl-2(1H)-pyrazinone], the IC50 at μ-opioid receptor (GPI) and on δ-opioid receptor (MVD) was > 10000 nM throughout. Moreover, the Ki was 6.94 nM on μ-opioid receptor [3] and 77.8 nM at δ-opioid receptor [4].
`C=CCN[C@@H](Cc1c(C)cc(O)cc1C)C(=O)N1CCC[C@H]1C(=O)N[C@@H](Cc1ccccc1)C(=O)N[C@@H](Cc1ccccc1)C(N)=O` [compound 48, [N-allyl-Dmt^1]EM-2]: the IC50 at μ-opioid receptor (GPI) and at δ-opioid receptor (MVD) was > 10000 nM each time. For the same compound, the Ki at μ-opioid receptor [3] is 0.45 nM; at δ-opioid receptor [4], 560 nM.
As to `Cc1cc(O)cc(C)c1C[C@H](N)C(=O)N1CCC[C@H]1C(=O)N[C@@H](Cc1ccccc1)C(=O)NCc1ccccc1` [compound 23, H-Dmt-Pro-Phe-NH-Bzl] (H-[Dmt]-Pro-Phe-NHBn), the figures for the IC50 on μ-opioid receptor (GPI) and at δ-opioid receptor (MVD) were 22 nM and > 10000 nM, respectively. In addition, the Ki at μ-opioid receptor [3] is 0.52 nM; on δ-opioid receptor [4] it was 13.8 nM.
With `Cc1cc(O)cc(C)c1C[C@H](N)C(=O)N1CCC[C@H]1C(=O)N[C@@H](Cc1ccccc1)C(=O)N[C@@H](Cc1ccccc1)C(N)=O` [compound 20, H-Dmt-Pro-Phe-Phe-NH2, [Dmt^1]EM-2], the half-inhibitory concentration (IC50) was 0.07 nM at μ-opioid receptor (GPI) and 1.87 nM at δ-opioid receptor (MVD). The figures for the Ki on μ-opioid receptor [3] and on δ-opioid receptor [4] were 0.15 nM and 28.2 nM, respectively.
Take `Cc1cc(C)cc(C[C@H](NC(=O)[C@@H]2CCCN2C(=O)[C@@H](N)Cc2c(C)cc(O)cc2C)C(=O)N[C@@H](Cc2ccccc2)C(N)=O)c1` [compound 41, H-Dmt-Pro-^3,5Dmp-Phe-NH2]: the IC50 at μ-opioid receptor (GPI) is 14.4 nM; on δ-opioid receptor (MVD), > 10000 nM. The values for the Ki at μ-opioid receptor [3] and at δ-opioid receptor [4] were 0.11 nM and 11.6 nM, respectively.
For the compound H-Mmt-Pro-Phe-Phe-NH2 [compound 34], the figures for the 50% inhibitory concentration (IC50) on μ-opioid receptor (GPI) and on δ-opioid receptor (MVD) were 0.924 nM and 28.7 nM, respectively. Moreover, the Ki at μ-opioid receptor [3] is 0.132 nM; on δ-opioid receptor [4], 529 nM.
As for `Cc1cc(O)cc(C)c1C[C@H](N)C(=O)NCCCCCCNC(=O)[C@@H](N)Cc1c(C)cc(O)cc1C` [compound 53, Dmt-NH-(CH2)6-NH-Dmt], the IC50 at μ-opioid receptor (GPI) was 3.08 nM; at δ-opioid receptor (MVD), > 10000 nM. Also, the Ki was 0.053 nM on μ-opioid receptor [3] and 46.1 nM on δ-opioid receptor [4].
Regarding `Cc1cc(O)cc(C)c1C[C@H](N)C(=O)N1CCC[C@H]1C(=O)N[C@@H](Cc1c[nH]c2ccccc12)C(=O)N[C@@H](Cc1ccccc1)C(N)=O` [compound 19, H-Dmt-Pro-Trp-Phe-NH2, [Dmt^1]EM-1], the IC50 at μ-opioid receptor (GPI) is 0.27 nM; on δ-opioid receptor (MVD), > 10000 nM. For the same compound, the Ki on μ-opioid receptor [3] was 0.054 nM; on δ-opioid receptor [4] it was 5.6 nM.
In the case of `CCc1cc(O)cc(CC)c1C[C@H](N)C(=O)N1CCC[C@H]1C(=O)N[C@@H](Cc1ccccc1)C(=O)N[C@@H](Cc1ccccc1)C(N)=O` [compound 37, H-Det-Pro-Phe-Phe-NH2], the 50% inhibitory concentration (IC50) was 0.903 nM at μ-opioid receptor (GPI) and 47.1 nM on δ-opioid receptor (MVD). Besides, the Ki at μ-opioid receptor [3] is 0.084 nM; at δ-opioid receptor [4], 69.7 nM.
On to `Cc1cc(O)cc(C)c1C[C@H](N)C(=O)N1Cc2ccccc2C[C@H]1C(=O)NCCCCNC(=O)[C@@H]1Cc2ccccc2CN1C(=O)[C@@H](N)Cc1c(C)cc(O)cc1C` [compound 66, bis[Dmt-Tic-NH]butane], for which the IC50 on μ-opioid receptor (GPI) and on δ-opioid receptor (MVD) was > 10000 nM throughout. Besides, the figures for the Ki at μ-opioid receptor [3] and at δ-opioid receptor [4] were 5.72 nM and 0.124 nM, respectively.
For `Cc1cc(O)cc(C)c1C[C@H](N)C(=O)N1CCC[C@H]1C(=O)N[C@@H](Cc1c(C)cccc1C(C)C)C(=O)N[C@@H](Cc1ccccc1)C(N)=O` [compound 46, H-Dmt-Pro-Imp-Phe-NH2], the concentration for half-maximal inhibition (IC50) on μ-opioid receptor (GPI) is 0.2 nM; at δ-opioid receptor (MVD), 5.56 nM. The Ki is 0.32 nM at μ-opioid receptor [3] and 4.61 nM on δ-opioid receptor [4].
Consider `Cc1cc(O)cc(C)c1C[C@H](NC(=O)[C@@H]1CCCN1C(=O)[C@@H](N)Cc1c(C)cc(O)cc1C)C(=O)N[C@@H](Cc1ccccc1)C(N)=O` [compound 43, H-Dmt-Pro-Dmt-Phe-NH2] (H-[Dmt]P[Dmt]F-NH2), for which the IC50 at μ-opioid receptor (GPI) was 1.94 nM; at δ-opioid receptor (MVD), > 10000 nM. For the same compound, the Ki on μ-opioid receptor [3] is 0.092 nM; at δ-opioid receptor [4], 80.8 nM.
Take `Cc1cc(O)cc(C)c1C[C@H](N)C(=O)N1Cc2ccccc2C[C@H]1C(=O)NCCCCCCCCCCNC(=O)[C@@H]1Cc2ccccc2CN1C(=O)[C@@H](N)Cc1c(C)cc(O)cc1C` [compound 68, bis[Dmt-Tic-NH]decane]: the figures for the IC50 on μ-opioid receptor (GPI) and at δ-opioid receptor (MVD) were 5420 nM and > 10000 nM, respectively. The figures for the Ki on μ-opioid receptor [3] and on δ-opioid receptor [4] were 4.86 nM and 1.53 nM, respectively.
As for `Cc1cc(O)cc(C)c1CC(C(=O)N1Cc2ccccc2CC1C(=O)NCCCc1[nH]c(=O)c(CCCNC(=O)C2Cc3ccccc3CN2C(=O)C(Cc2c(C)cc(O)cc2C)N(C)C)nc1C)N(C)C` (stereo not drawn) [compound 70, 3,6-bis[N,N-dimethyl-Dmt-Tic-NH-propyl]-5-methyl-2(1H)-pyrazinone], the IC50 at μ-opioid receptor (GPI) and at δ-opioid receptor (MVD) was > 10000 nM throughout. Also, the Ki is 1.68 nM on μ-opioid receptor [3] and 0.287 nM at δ-opioid receptor [4].
As for H-Tmt-Pro-Phe-Phe-NH2 [compound 39], the results for the IC50 at μ-opioid receptor (GPI) and on δ-opioid receptor (MVD) were 2.31 nM and 46.4 nM, respectively. The Ki at μ-opioid receptor [3] was 0.111 nM; at δ-opioid receptor [4], 594 nM.
With H-Dit-Pro-Phe-Phe-NH2 [compound 38], the figures for the concentration for half-maximal inhibition (IC50) on μ-opioid receptor (GPI) and on δ-opioid receptor (MVD) were 299 nM and > 10000 nM, respectively. The Ki at μ-opioid receptor [3] is 2.29 nM; at δ-opioid receptor [4] it was 105 nM.
As to `Cc1cc(O)cc(C)c1CC(N)C(=O)N1Cc2ccccc2CC1C(=O)NCc1[nH]c(=O)c(CNC(=O)C2Cc3ccccc3CN2C(=O)C(N)Cc2c(C)cc(O)cc2C)nc1C` (stereo not drawn) [compound 59, 3,6-bis[Dmt-Tic-NH-CH2]-5-methyl-2(1H)-pyrazinone], the IC50 at μ-opioid receptor (GPI) and on δ-opioid receptor (MVD) was > 10000 nM each time. The values for the Ki at μ-opioid receptor [3] and at δ-opioid receptor [4] were 3.76 nM and 0.163 nM, respectively.
In the case of H-Dmt-Pro-Tmp-Phe-NH2 [compound 44], the IC50 on μ-opioid receptor (GPI) was 0.21 nM; on δ-opioid receptor (MVD), > 10000 nM. Moreover, the Ki at μ-opioid receptor [3] was 0.18 nM; on δ-opioid receptor [4], 1.83 nM.
Regarding `Cc1cc(O)cc(C(C)C)c1C[C@H](N)C(=O)N1CCC[C@H]1C(=O)N[C@@H](Cc1ccccc1)C(=O)N[C@@H](Cc1ccccc1)C(N)=O` [compound 36, H-Imt-Pro-Phe-Phe-NH2], the IC50 is 10.6 nM on μ-opioid receptor (GPI) and 601 nM at δ-opioid receptor (MVD). The values for the Ki at μ-opioid receptor [3] and on δ-opioid receptor [4] were 0.15 nM and 190 nM, respectively.
On to `Cc1cccc(C)c1C[C@H](NC(=O)[C@@H]1CCCN1C(=O)[C@@H](N)Cc1c(C)cc(O)cc1C)C(=O)N[C@@H](Cc1ccccc1)C(N)=O` [compound 42, H-Dmt-Pro-Dmp-Phe-NH2], for which the IC50 was 0.12 nM on μ-opioid receptor (GPI) and > 10000 nM at δ-opioid receptor (MVD). In addition, the Ki on μ-opioid receptor [3] is 0.069 nM; at δ-opioid receptor [4], 2.27 nM.
Take `CCc1cc(O)cc(C)c1C[C@H](N)C(=O)N1CCC[C@H]1C(=O)N[C@@H](Cc1ccccc1)C(=O)N[C@@H](Cc1ccccc1)C(N)=O` [compound 35, H-Emt-Pro-Phe-Phe-NH2]: the IC50 at μ-opioid receptor (GPI) is 0.623 nM; on δ-opioid receptor (MVD) it was 1.08 nM. Moreover, the Ki is 0.063 nM at μ-opioid receptor [3] and 55.7 nM on δ-opioid receptor [4].
Take `Cc1cc(O)cc(C)c1C[C@H](N)C(=O)N1CCC[C@H]1C(=O)N[C@@H](Cc1ccccc1)C(=O)Nc1ccccc1` [compound 24, H-Dmt-Pro-Phe-NH-Ph] (H-[Dmt]-Pro-Phe-NHPh): the IC50 on μ-opioid receptor (GPI) is 37.7 nM; on δ-opioid receptor (MVD), > 10000 nM. The values for the Ki on μ-opioid receptor [3] and on δ-opioid receptor [4] were 1.11 nM and 20.6 nM, respectively.
As for `CCc1cccc(C)c1CC(NC(=O)C1CCCN1C(=O)C(N)Cc1c(C)cc(O)cc1C)C(=O)NC(Cc1ccccc1)C(N)=O` (stereo not drawn) [compound 45, H-Dmt-Pro-Emp-Phe-NH2], the results for the concentration for half-maximal inhibition (IC50) on μ-opioid receptor (GPI) and at δ-opioid receptor (MVD) were 0.17 nM and 0.51 nM, respectively. The values for the Ki on μ-opioid receptor [3] and at δ-opioid receptor [4] were 0.21 nM and 3.03 nM, respectively.
As to `Cc1cc(O)cc(C)c1C[C@H](N)C(=O)N1CCC[C@H]1C(=O)N[C@@H](Cc1ccccc1)C(=O)Nc1cccc2cnccc12` [compound 33, H-Dmt-Pro-Phe-NH-5-Isq], the IC50 at μ-opioid receptor (GPI) is 0.94 nM; at δ-opioid receptor (MVD), > 10000 nM. The Ki at μ-opioid receptor [3] was 0.19 nM; on δ-opioid receptor [4], 98.3 nM.
As for `Cc1cc(O)cc(C)c1CC(N)C(=O)N1Cc2ccccc2CC1C(=O)NCCc1[nH]c(=O)c(CCNC(=O)C2Cc3ccccc3CN2C(=O)C(N)Cc2c(C)cc(O)cc2C)nc1C` (stereo not drawn) [compound 60, 3,6-bis[Dmt-Tic-NH(CH2)2]-5-methyl-2(1H)-pyrazinone], the IC50 on μ-opioid receptor (GPI) and at δ-opioid receptor (MVD) was > 10000 nM each time. Moreover, the Ki is 2.83 nM on μ-opioid receptor [3] and 0.095 nM at δ-opioid receptor [4].
